Experimental data published in US7790717B2, “Spiro-oxazolidinone compounds and their use as metabotropic glutamate receptor potentiators” (AstraZeneca AB, priority 2006, dated 2010).

target: T1, human mGluR2 (Homo sapiens, UniProt Q14416); experiment: [35S]-GTPγS binding assay of mGluR2 receptor activation (allosteric activator activity); type: biochemical; settings: membranes from CHO cells stably expressing human mGluR2; in presence of 1 μM glutamate
T1 construct: expressed in transfected cells; host or cells: CHO cells, stably transfected; membrane preparation
Description: A [^35S]-GTPγS binding assay was used to functionally assay mGluR2 receptor activation. The allosteric activator activity of compounds at the human mGluR2 receptor were measured using a [^35S]-GTPγS binding assay with membranes prepared from CHO cells which stably express the human mGluR2. The assay is based upon the principle that agonists bind to G-protein coupled receptors to stimulate GDP-GTP exchange at the G-protein. Since [^35S]-GTPγS is a non-hydrolyzable GTP analog, it can be used to provide an index of GDP-GTP exchange and, thus, receptor activation. The GTPγS binding assay therefore provides a quantitative measure of receptor activation.
Membranes were prepared from CHO cells stably transfected with human mGluR2. Membranes (30 μg protein) were incubated with test compound (3 nM to 300 μM) for 15 minutes at room temperature prior to the addition of 1 μM glutamate, and incubated for 30 min at 30° C. in 500 μL assay buffer (20 mM HEPES, 100 mM NaCl, 10 mM MgCl2), containing 30 μM GDP and 0.1 nM [^35S]-GTPγS (1250 Ci/mmol). Reactions were carried out in triplicate in 2 mL polypropylene 96-well plates. Reactions were terminated by vacuum filtration using a Packard 96-well harvester and Unifilter-96, GF/B filter microplates. The filter plates were washed 4×1.5 mL with ice-old wash buffer (10 mM sodium phosphate buffer, pH 7.4). The filter plates were dried and 35 μL of scintillation fluid (Microscint 20) was added to each well. The amount of radioactivity bound was determined by counting plates on a Packard TopCount. Data was analyzed using GraphPad Prism, and […] and Emax values (relative to the maximum glutamate effect) were calculated using non-linear regression.

T1 sequence (Q14416 19-872): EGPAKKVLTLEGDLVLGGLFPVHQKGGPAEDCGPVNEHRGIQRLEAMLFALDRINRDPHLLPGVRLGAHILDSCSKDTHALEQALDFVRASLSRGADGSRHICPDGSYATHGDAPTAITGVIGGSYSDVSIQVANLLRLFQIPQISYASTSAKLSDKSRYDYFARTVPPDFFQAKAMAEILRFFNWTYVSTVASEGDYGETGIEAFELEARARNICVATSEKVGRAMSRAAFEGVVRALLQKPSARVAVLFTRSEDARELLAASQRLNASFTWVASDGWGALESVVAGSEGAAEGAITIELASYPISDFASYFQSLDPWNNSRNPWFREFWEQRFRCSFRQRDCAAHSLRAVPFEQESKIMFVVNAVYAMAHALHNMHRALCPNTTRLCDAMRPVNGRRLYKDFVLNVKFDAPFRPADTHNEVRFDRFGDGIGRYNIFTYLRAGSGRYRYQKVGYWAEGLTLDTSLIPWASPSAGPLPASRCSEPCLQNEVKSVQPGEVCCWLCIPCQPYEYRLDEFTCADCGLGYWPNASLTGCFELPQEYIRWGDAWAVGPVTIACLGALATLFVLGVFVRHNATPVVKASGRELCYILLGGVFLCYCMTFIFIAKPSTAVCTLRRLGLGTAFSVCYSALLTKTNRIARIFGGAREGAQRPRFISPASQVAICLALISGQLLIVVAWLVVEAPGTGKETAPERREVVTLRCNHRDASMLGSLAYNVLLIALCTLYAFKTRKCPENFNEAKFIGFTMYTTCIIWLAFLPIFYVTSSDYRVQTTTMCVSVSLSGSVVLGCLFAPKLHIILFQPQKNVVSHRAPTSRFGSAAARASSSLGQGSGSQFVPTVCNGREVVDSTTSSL

| Compound | EC50 |
| --- | --- |
| O=C1OC2(CCCCC2)CN1Cc1ccc(-c2ccc(Oc3ccccc3)cc2)cc1 [Example 1.6, 3-(4′-Phenoxy-biphenyl-4-ylmethyl)-1-oxa-3-aza-spiro[4.5]decan-2-one] | 14 nM |
| O=C1OC2(CCCCC2)CN1Cc1ccc(-c2ccc(NCCN3CCOCC3)nc2)cc1 [Example 1.30, 3-{4-[6-(2-Morpholin-4-yl-ethylamino)-pyridin-3-yl]-benzyl}-1-oxa-3-aza-spiro[4.5] decan-2-one] | 1000 nM |
| O=C1OC2(CCCCC2)CN1Cc1ccc(-c2ccccc2)cc1 [Example 3.2, 3-Biphenyl-4-ylmethyl-1-oxa-3-aza-spiro[4.5]decan-2-one] | 95 nM |
| O=C1OC2(CCC3(CC2)OCCO3)CN1Cc1ccc(-c2ccc(F)cc2)cc1 [Example 1.49, 3-(4′-Fluoro-biphenyl-4-ylmethyl)-1,9,12-trioxa-3-aza-dispiro[4.2.4.2]tetradecan-2-one] | 381 nM |
| O=C1OC2(CCCCC2)CN1Cc1ccc(-c2ccccc2CN2CCOCC2)cc1 [Example 1.1, 3-(2′-Morpholin-4-ylmethyl-biphenyl-4-ylmethyl)-1-oxa-3-aza-spiro[4.5]decan-2-one] | 326 nM |
